Measurements from patent US11136300B2, “Crystalline forms of 3-substituted 1,2,4-oxadiazole” (Aurigene Discovery Technologies Limited, priority 2017, dated 2021).
≈ marks a conversion by molar mass, not a printed value.

How the values were obtained:
Type in all cases: physicochemical
[1] = Storage of Form 1 at ambient conditions
Procedure: Formula (I) Form 1 exists at ambient conditions upon short term storage (i.e., less than 8 d). A mixture of formula (I) Forms 1 and 2 (16 mg) was weighed into a glass vial, and tetrahydrofuran (THF, 0.5 mL) was added. The resulting slurry was stirred at room temperature for about 4 d. The wet solids were analyzed by XRPD in transmission mode and confirmed to be crystalline formula (I) Form 1, as shown by XRPD analysis (FIG. 1).

[2] = Equilibrium solubility of formula (I) Form 2 in water; details: for Final Form: solids checked by XRPD after 6 hrs; for solubility at 6 h: thermodynamic from solid, equilibrated 6 hrs, supernatant by HPLC
Procedure: Equilibrium solubility of formula (I) Form 2 was measured in the water at 20° C. and 30° C. All samples were equilibrated at temperature for 6 hrs, and the solubility of supernatant was measured by HPLC, while the solids were checked by XRPD. (See Table 9.)

[3] = Solid stability of crystalline Form 2 on storage; details: 7-8 days
Procedure: Samples of formula (I) crystalline Form 2 were stored as solids at 25° C./60% Relative Humidity (RH), 30° C./˜56%, and 40° C./75% RH for 7-8 days. The samples were prepared in duplicate with an offset of 2 weeks. Each replicate was stored in a different container.

| SMILES | time for which the form exists on short term storage [1] | form change during the solubility testing ([2]; 20° C. and 30° C., XRPD (FIG. 6)) | Final Form ([2]; 20° C.) | Final Form ([2]; 30° C.) | solubility at 6 h ([2]; 20° C.) [mg/mL] | solubility at 6 h ([2]; 30° C.) [mg/mL] | solid form and particle morphology after storage ([3]; 25° C./60% RH) | solid form and particle morphology after storage ([3]; 30° C./~56% RH) | solid form and particle morphology after storage ([3]; 40° C./75% RH) |
| --- | --- | --- | --- | --- | --- | --- | --- | --- | --- |
| CC(O)[C@H](NC(=O)N[C@@H](CC(N)=O)c1nc([C@@H](N)CO)no1)C(=O)O (stereo partly drawn) [Form 1] | less than 8 d | – | – | – | – | – | – | – | – |
| CC(O)[C@H](NC(=O)N[C@@H](CC(N)=O)c1nc([C@@H](N)CO)no1)C(=O)O (stereo partly drawn) [Form 2] | – | No form change was observed | Form 2 | Form 2 | 148 (≈ 410 mM) | 166 (≈ 459 mM) | remained unchanged | remained unchanged | remained unchanged |
